From patent US12655116B2, “Substituted isophthalic acid diamides” (Bayer Aktiengesellschaft, priority 2020, dated 2026)

How the values were obtained:
VERPE = experiment: Pre-emergence herbicidal action against VERPE; type: in vivo, Veronica persica; conditions: dosage 80 g/ha; for pest or weed control at 80 g/ha: Veronica persica, 504 h
Procedure, shortened: (§1)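 Herbicidal effect was assessed 3 weeks after treatment by visual comparison with untreated controls, 100% denoting dead plants. Aqueous WP or EC preparations had been applied at 600 to 800 l/ha with 0.2% wetting agent to the soil covering freshly sown seeds.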

VIOTR [1] = experiment: Pre-emergence herbicidal action against VIOTR; type: in vivo, Viola tricolor; conditions: for pest or weed control at 80 g/ha: Viola tricolor, 504 h
Procedure, shortened: as §1

ALOMY [2] = experiment: Pre-emergence herbicidal action against ALOMY; type: in vivo, Alopecurus myosuroides; conditions: pre-emergence; for pest or weed control at 80 g/ha / pest or weed control at 20 g/ha: Alopecurus myosuroides, 504 h; for pest or weed control at 20 g/ha: scored visually after 3 weeks, 100% = plants have died, 0% = like control plants
Procedure, shortened: as §1

VIOTR [3] = experiment: Post-emergence herbicidal action against VIOTR; type: in vivo, Viola tricolor; conditions: for pest or weed control at 20 g/ha: Viola tricolor, 504 h
Procedure, shortened: (§2)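 Herbicidal effect was scored visually in percent after about 3 weeks in the greenhouse. Plants had been raised in sandy loam and treated post-emergence at the one-leaf stage with formulated compound at 600 to 800 l/ha water plus 0.2% wetting agent.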

MATIN [4] = experiment: Pre-emergence herbicidal action against MATIN; type: in vivo, Matricaria inodora; conditions: for pest or weed control at 20 g/ha / pest or weed control at 80 g/ha: Tripleurospermum inodorum, 504 h
Procedure, shortened: as §1

ABUTH [5] = experiment: Pre-emergence herbicidal action against ABUTH; type: in vivo, Abutilon theophrasti; conditions: for pest or weed control at 80 g/ha: Abutilon theophrasti, 504 h
Procedure, shortened: as §1

ALOMY [6] = experiment: Post-emergence herbicidal action against ALOMY; type: in vivo, Alopecurus myosuroides; conditions: Alopecurus myosuroides, 504 h, visual assessment about 3 weeks after treatment vs untreated controls; for pest or weed control at 5 g/ha: dosage 5 g/ha; for pest or weed control at 20 g/ha: dosage 20 g/ha
Procedure, shortened: as §2

AVEFA = experiment: Pre-emergence herbicidal action against AVEFA; type: in vivo, Avena fatua; conditions: 80 g/ha, pre-emergence
Procedure, shortened: as §1

ECHCG [7] = experiment: Pre-emergence herbicidal action against ECHCG; type: in vivo, Echinochloa crus-galli; conditions: 80 g/ha; for pest or weed control at 80 g/ha: Echinochloa crus-galli, 504 h
Procedure, shortened: as §1

ABUTH [8] = experiment: Post-emergence herbicidal action against ABUTH; type: in vivo, Abutilon theophrasti; conditions: visual assessment about 3 weeks after treatment vs untreated controls; for pest or weed control at 5 g/ha / pest or weed control at 20 g/ha: Abutilon theophrasti, 504 h
Procedure, shortened: as §2

SETVI [9] = experiment: Pre-emergence herbicidal action against SETVI; type: in vivo, Setaria viridis; conditions: dosage 80 g/ha
Procedure, shortened: as §1

PHBPU [10] = experiment: Post-emergence herbicidal action against PHBPU; type: in vivo, Pharbitis purpurea; conditions: Ipomoea purpurea, 504 h, dosage 20 g/ha
Procedure, shortened: as §2

POLCO = experiment: Pre-emergence herbicidal action against POLCO; type: in vivo, Polygonum convolvulus; conditions: dosage 80 g/ha; for pest or weed control at 80 g/ha: Fallopia convolvulus, 504 h
Procedure, shortened: as §1

ECHCG [11] = experiment: Post-emergence herbicidal action against ECHCG; type: in vivo, Echinochloa crus-galli; conditions: dosage 20 g/ha; for pest or weed control at 20 g/ha: Echinochloa crus-galli, 504 h
Procedure, shortened: as §2

PHBPU [12] = experiment: Pre-emergence herbicidal action against PHBPU; type: in vivo, Pharbitis purpurea; conditions: dosage 80 g/ha; for pest or weed control at 80 g/ha: Ipomoea purpurea, 504 h
Procedure, shortened: as §1

SETVI [13] = experiment: Post-emergence herbicidal action against SETVI; type: in vivo, Setaria viridis; conditions: Setaria viridis, 504 h
Procedure, shortened: as §2

AMARE [14] = experiment: Pre-emergence herbicidal action against AMARE; type: in vivo, Amaranthus retroflexus; conditions: for pest or weed control at 20 g/ha / pest or weed control at 80 g/ha: Amaranthus retroflexus, 504 h
Procedure, shortened: as §1

AMARE [15] = experiment: Post-emergence herbicidal action against AMARE; type: in vivo, Amaranthus retroflexus; conditions: 20 g/ha, visual assessment about 3 weeks after treatment, 100% = plants have died, 0% = like control plants; for pest or weed control at 20 g/ha: Amaranthus retroflexus, 504 h
Procedure, shortened: as §2

MATIN [16] = experiment: Post-emergence herbicidal action against MATIN; type: in vivo, Matricaria inodora; conditions: dosage 20 g/ha
Procedure, shortened: as §2

DIGSA [17] = experiment: Pre-emergence herbicidal action against DIGSA; type: in vivo, Digitaria sanguinalis
Procedure, shortened: as §1

DIGSA [18] = experiment: Post-emergence herbicidal action against DIGSA; type: in vivo, Digitaria sanguinalis; conditions: 20 g/ha
Procedure, shortened: as §2

[19] = 80 g/ha, scored visually after 3 weeks vs untreated controls (100% = plants have died, 0% = like control plants)
[20] = 20 g/ha, scored visually after 3 weeks vs untreated controls, 100% = plants have died, 0% = like control plants
[21] = 80 g/ha, scored visually after 3 weeks vs untreated controls, 100% = plants have died, 0% = like control plants

CCNC(=O)c1c(Cl)ccc(C(=O)Nc2nnnn2CC)c1Br [Example 2-348]
100%: pest or weed control at 80 g/ha (VIOTR [1]; dosage 80 g/ha) | pest or weed control at 80 g/ha (ALOMY [2]; [19]) | pest or weed control at 80 g/ha (ABUTH [5]; [19]) | pest or weed control at 80 g/ha (AVEFA; Avena fatua, 504 h) | pest or weed control at 80 g/ha (ECHCG [7]) | pest or weed control at 80 g/ha (SETVI [9]; Setaria viridis, 504 h) | pest or weed control at 20 g/ha (SETVI [13]; dosage 20 g/ha) | pest or weed control at 20 g/ha (AMARE [14]; [20]) | pest or weed control at 80 g/ha (AMARE [14]; [21]) | pest or weed control at 20 g/ha (AMARE [15])
80%: pest or weed control at 80 g/ha (VERPE) | pest or weed control at 20 g/ha (VIOTR [3]; 20 g/ha) | pest or weed control at 5 g/ha (ALOMY [6]) | pest or weed control at 20 g/ha (PHBPU [10]) | pest or weed control at 20 g/ha (ECHCG [11]) | pest or weed control at 80 g/ha (PHBPU [12]) | pest or weed control at 5 g/ha (SETVI [13]; dosage 5 g/ha)
90%: pest or weed control at 20 g/ha (ALOMY [2]) | pest or weed control at 20 g/ha (MATIN [4]; dosage 20 g/ha) | pest or weed control at 80 g/ha (MATIN [4]; dosage 80 g/ha) | pest or weed control at 20 g/ha (ALOMY [6]) | pest or weed control at 5 g/ha (ABUTH [8]; dosage 5 g/ha) | pest or weed control at 20 g/ha (ABUTH [8]; dosage 20 g/ha) | pest or weed control at 80 g/ha (POLCO)

CCn1nnnc1NC(=O)c1ccc(C(F)F)c(C(=O)NC)c1Br [Example 2-225]
90%: Pre-emergence action against ECHCG in % (ECHCG [7]) | Pre-emergence action against POLCO in % (POLCO) | Pre-emergence action against PHBPU in % (PHBPU [12])
100%: Pre-emergence action against VERPE in % (VERPE) | Pre-emergence action against VIOTR in % (VIOTR [1]; dosage 80 g/ha) | Pre-emergence action against ALOMY (herbicidal activity) (ALOMY [2]; [19]) | Post-emergence action against VIOTR in % (VIOTR [3]; 5 g/ha) | Post-emergence action against VIOTR in % (VIOTR [3]; 20 g/ha) | Pre-emergence action against MATIN in % (MATIN [4]; dosage 80 g/ha) | Pre-emergence action against ABUTH (herbicidal activity) (ABUTH [5]; [19]) | Pre-emergence action against ABUTH (herbicidal activity in percent) (ABUTH [5]; dosage 20 g/ha, scored visually after 3 weeks vs untreated controls, 100% = plants have died, 0% = like control plants) | Post-emergence action against ABUTH in % (ABUTH [8]; dosage 5 g/ha) | Post-emergence action against ABUTH in % (ABUTH [8]; dosage 20 g/ha) | Pre-emergence action against SETVI in % (SETVI [9]) | Post-emergence action against ECHCG in % (ECHCG [11]) | Pre-emergence action against DIGSA in % (DIGSA [17]; dosage 20 g/ha) | Pre-emergence action against DIGSA in % (DIGSA [17]; dosage 80 g/ha) | Post-emergence action against DIGSA (DIGSA [18]) | Pre-emergence action against AMARE in % (AMARE [14]; [20]) | Pre-emergence action against AMARE in % (AMARE [14]; [19]) | Post-emergence action at 20 g/ha against AMARE in % (AMARE [15])
80%: Pre-emergence action against VIOTR in % (VIOTR [1]; dosage 20 g/ha) | Post-emergence action against MATIN in % (MATIN [16]) | Pre-emergence action against MATIN in % (MATIN [4]; dosage 20 g/ha) | Pre-emergence action against AVEFA in % (AVEFA)

CCCNC(=O)c1c(Br)ccc(C(=O)Nc2nnnn2C)c1Cl [Example 1-184]
90%: pest or weed control at 80 g/ha (VERPE) | pest or weed control at 80 g/ha (VIOTR [1]; dosage 80 g/ha) | pest or weed control at 20 g/ha (ALOMY [2]) | pest or weed control at 20 g/ha (VIOTR [3]; 20 g/ha)
80%: pest or weed control at 20 g/ha (MATIN [4]; dosage 20 g/ha) | pest or weed control at 5 g/ha (ALOMY [6]) | pest or weed control at 20 g/ha (ALOMY [6]) | pest or weed control at 5 g/ha (ABUTH [8]; dosage 5 g/ha) | pest or weed control at 20 g/ha (ABUTH [8]; dosage 20 g/ha) | pest or weed control at 20 g/ha (PHBPU [10]) | pest or weed control at 80 g/ha (POLCO) | pest or weed control at 80 g/ha (PHBPU [12])
100%: pest or weed control at 80 g/ha (ALOMY [2]; [19]) | pest or weed control at 80 g/ha (MATIN [4]; dosage 80 g/ha) | pest or weed control at 80 g/ha (ABUTH [5]; [19]) | pest or weed control at 80 g/ha (ECHCG [7]) | pest or weed control at 20 g/ha (ECHCG [11]) | pest or weed control at 20 g/ha (AMARE [14]; [20]) | pest or weed control at 80 g/ha (AMARE [14]; [21]) | pest or weed control at 20 g/ha (AMARE [15])
